Patent US20200375992A1, “PHARMACEUTICAL COMPOSITION AND USE FOR APPLYING PALBOCICLIB IN DISEASE TREATMENT OF PATIENT AND INHIBITION OF PI3K ACTIVITY” (Chang Gung University, priority 2019, published 2020)

Experiments:
IMQ-treated mice = experiment: Psoriasis-like symptoms in IMQ-treated mice; assay type: in vivo, Male BALB/c mice
Experimental: 500 μg of Palbociclib was dissolved in 100 μl of 60% ethanol to make a pharmaceutical composition. The Palbociclib concentration of the pharmaceutical composition was 500 μg/100 μl and used in the subsequent animal experimental example 4. Male BALB/c mice (7-9 weeks of age, the body weight of each mouse is about 20 g) were divided into different groups, and each group has 6 mice. Each mouse was epilation on the back and then treated with 100 μl of solvent (60% ethanol) or 100 μl of the pharmaceutical composition prepared in example 3 (the concentration of Palbociclib is 25 mg/kg of body weight) by applying on the nude back skin before topical treatment of imiquimod (IMQ, sold by 3M Health Care Limited). And then applying with or without IMQ on the nude back skin of mice to cause psoriasis-like symptom. Each treatment was given once per day for 5 consecutive days. The mice which applying solvent and IMQ is played as the control. The mice which merely applying solvent or Palbociclib without IMQ are played as the blank 1 and blank 2.

[1] = tested on: fMLF-stimulated neutrophils; experiment: Elastase release in fMLF-stimulated neutrophils (Methoxysuccinyl-Ala-Ala-Val-p-nitroanilide, OD450); assay type: cell-based; details: 3 μM and 10 μM of Palbociclib; human neutrophils stimulated with fMLF (0.1 μM)/cytochalasin B; compared with control; decreased with increasing concentration; FIG. 2B
Experimental: (§1) The informed consent to participate which was approved by the Institutional Review Board are signed by the donors. 50 mL of blood was collected from the median cubital vein of each donor by sterile vacutainer, and was used to isolate neutrophils for the following experiments.
(§2) Human neutrophils (isolated from whole blood of donors) were incubated with ddH2O (as solvent, marked as “−” in the groups at X-axis in FIGS. 2A and 2B) or Palbociclib (0.3-10 μM, dissolved in ddH2O) for 5 minutes, and then stimulated the neutrophils with or without fMLF (0.1 μM)/cytochalasin B (CB, 1 μg/ml) for another 10 minutes to activate the neutrophils. The absorbances (OD550 and OD450) of the reaction mixture were then measured by a spectrophotometer at OD 550 nm and OD 450 nm. The reading of OD550 is used to detect the reduction of ferricytochrome c, which indicates the amount of superoxide anion. The reading of OD450 is used to detect the status of Methoxysuccinyl-Ala-Ala-Val-p-nitroanilide (which is a specific substrate of elastase) affected by elastase, which indicates the release amount and activity of elastase. Cytochalasin B was sold by Sigma-Aldrich, catalog number #2506; fMLF was sold by Sigma-Aldrich, catalog number #454454; model number of the spectrophotometer is HITACHI U-3010. […]

PI3K p110β/p85α = PI3K p110β/p85α (Homo sapiens, UniProt P42338); experiment: PI3K p110β/p85α enzymatic activity, Kinase-Glo Luminescent Kinase Assay; assay type: biochemical; details: 3 μM, 10 μM and 30 μM of Palbociclib; p<0.001 compared with control; activity decreased with increasing concentration; n=6; FIG. 1B
Experimental: (§3) Palbociclib was dissolved in ddH2O (as solvent) and then added to the reagents which contain PI3K p110α/p85α (50 ng/ml), PI3K p110β/p85α (150 ng/ml), or PI3K p110δ/p85α (50 ng/ml). The final concentration of Palbociclib was 0.1 to 30 μM. Then, the mixtures were incubated for 10 minutes at 25° C. The reagent which was added by ddH2O (solvent, marked as “−” in FIGS. 1A-1C) instead of Palbociclib was as a control in this experiment. 2.5X ATP/substrate was added to each reagent and then further incubated for 60 minutes. Finally, enzymatic activities of PI3K were analyzed according to the user manual of Kinase-Glo® Luminescent Kinase Assays (Promega Corporation, catalog number V1690) and luminometer (TECAN infinite 200 Pro) by using Kinase-Glo® Luminescent Kinase Assays.

PI3K p110δ/p85α = PI3K p110δ/p85α (Homo sapiens, UniProt O00329); experiment: PI3K p110δ/p85α enzymatic activity, Kinase-Glo Luminescent Kinase Assay; assay type: biochemical; details: 0.1 μM, 1 μM and 10 μM of Palbociclib; p<0.001 compared with control; activity decreased with increasing concentration; n=6; FIG. 1C
Experimental: as §3

[2] = tested on: fMLF-stimulated neutrophils; experiment: Superoxide anion generation in fMLF-stimulated neutrophils (ferricytochrome c reduction, OD550); assay type: cell-based; details: 1 μM, 3 μM and 10 μM of Palbociclib; human neutrophils stimulated with fMLF (0.1 μM)/cytochalasin B; compared with control; decreased with increasing concentration; FIG. 2A
Experimental: as §1, §2

PI3K p110α/p85α = PI3K p110α/p85α (Homo sapiens, UniProt P42336); experiment: PI3K p110α/p85α enzymatic activity, Kinase-Glo Luminescent Kinase Assay; assay type: biochemical; details: 3 μM, 10 μM and 30 μM of Palbociclib; p<0.001 compared with control; activity decreased with increasing concentration; n=6; FIG. 1A
Experimental: as §3

PI3K p110β/p85α, sequence (P42338 whole entry): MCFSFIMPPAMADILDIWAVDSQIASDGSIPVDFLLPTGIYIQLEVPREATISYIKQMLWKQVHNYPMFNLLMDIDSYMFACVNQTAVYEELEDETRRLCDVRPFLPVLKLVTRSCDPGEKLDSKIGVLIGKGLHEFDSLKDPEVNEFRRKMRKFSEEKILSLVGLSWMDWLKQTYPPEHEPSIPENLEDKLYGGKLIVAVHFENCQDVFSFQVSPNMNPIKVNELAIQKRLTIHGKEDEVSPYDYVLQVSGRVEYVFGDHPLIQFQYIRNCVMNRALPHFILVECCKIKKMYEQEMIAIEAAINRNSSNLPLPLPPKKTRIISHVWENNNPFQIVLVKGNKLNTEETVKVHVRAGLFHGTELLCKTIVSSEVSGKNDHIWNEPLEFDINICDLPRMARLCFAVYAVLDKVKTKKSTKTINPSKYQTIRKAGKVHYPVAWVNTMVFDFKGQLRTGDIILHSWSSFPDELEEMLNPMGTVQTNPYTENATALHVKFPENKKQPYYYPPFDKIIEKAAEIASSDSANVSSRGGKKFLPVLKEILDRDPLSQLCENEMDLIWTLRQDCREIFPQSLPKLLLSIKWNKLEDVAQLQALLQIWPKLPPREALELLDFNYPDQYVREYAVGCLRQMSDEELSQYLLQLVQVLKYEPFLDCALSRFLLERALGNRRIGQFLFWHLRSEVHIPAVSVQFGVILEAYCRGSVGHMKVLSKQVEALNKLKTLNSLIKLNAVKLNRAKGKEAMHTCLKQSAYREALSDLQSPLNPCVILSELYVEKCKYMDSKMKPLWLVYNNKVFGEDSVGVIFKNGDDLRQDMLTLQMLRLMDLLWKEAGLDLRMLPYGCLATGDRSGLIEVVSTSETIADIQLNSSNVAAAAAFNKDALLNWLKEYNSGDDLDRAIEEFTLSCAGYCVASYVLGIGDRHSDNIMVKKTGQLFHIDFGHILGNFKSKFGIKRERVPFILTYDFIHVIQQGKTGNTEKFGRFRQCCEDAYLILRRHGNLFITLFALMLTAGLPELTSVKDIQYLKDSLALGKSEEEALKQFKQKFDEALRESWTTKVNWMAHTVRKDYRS
PI3K p110β/p85α, sequence (P27986 whole entry partner): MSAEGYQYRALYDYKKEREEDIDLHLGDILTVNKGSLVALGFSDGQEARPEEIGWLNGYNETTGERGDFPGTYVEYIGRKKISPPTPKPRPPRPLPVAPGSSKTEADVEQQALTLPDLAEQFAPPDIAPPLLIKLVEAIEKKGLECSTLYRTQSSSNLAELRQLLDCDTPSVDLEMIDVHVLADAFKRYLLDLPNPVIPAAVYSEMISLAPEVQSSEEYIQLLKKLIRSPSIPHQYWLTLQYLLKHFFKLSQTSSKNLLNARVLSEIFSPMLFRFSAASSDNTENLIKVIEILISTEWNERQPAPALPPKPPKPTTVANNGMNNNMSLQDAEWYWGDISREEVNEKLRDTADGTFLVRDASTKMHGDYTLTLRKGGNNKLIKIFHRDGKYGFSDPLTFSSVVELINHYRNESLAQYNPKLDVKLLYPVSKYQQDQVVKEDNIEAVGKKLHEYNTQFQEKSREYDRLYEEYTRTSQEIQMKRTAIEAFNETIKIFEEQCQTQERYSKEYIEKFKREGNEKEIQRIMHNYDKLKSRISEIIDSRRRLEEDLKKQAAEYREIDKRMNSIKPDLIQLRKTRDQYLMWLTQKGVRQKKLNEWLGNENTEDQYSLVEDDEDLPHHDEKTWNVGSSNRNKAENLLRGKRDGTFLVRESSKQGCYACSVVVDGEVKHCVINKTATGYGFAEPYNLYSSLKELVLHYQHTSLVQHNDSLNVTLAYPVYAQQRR
PI3K p110α/p85α, sequence (P42336 whole entry): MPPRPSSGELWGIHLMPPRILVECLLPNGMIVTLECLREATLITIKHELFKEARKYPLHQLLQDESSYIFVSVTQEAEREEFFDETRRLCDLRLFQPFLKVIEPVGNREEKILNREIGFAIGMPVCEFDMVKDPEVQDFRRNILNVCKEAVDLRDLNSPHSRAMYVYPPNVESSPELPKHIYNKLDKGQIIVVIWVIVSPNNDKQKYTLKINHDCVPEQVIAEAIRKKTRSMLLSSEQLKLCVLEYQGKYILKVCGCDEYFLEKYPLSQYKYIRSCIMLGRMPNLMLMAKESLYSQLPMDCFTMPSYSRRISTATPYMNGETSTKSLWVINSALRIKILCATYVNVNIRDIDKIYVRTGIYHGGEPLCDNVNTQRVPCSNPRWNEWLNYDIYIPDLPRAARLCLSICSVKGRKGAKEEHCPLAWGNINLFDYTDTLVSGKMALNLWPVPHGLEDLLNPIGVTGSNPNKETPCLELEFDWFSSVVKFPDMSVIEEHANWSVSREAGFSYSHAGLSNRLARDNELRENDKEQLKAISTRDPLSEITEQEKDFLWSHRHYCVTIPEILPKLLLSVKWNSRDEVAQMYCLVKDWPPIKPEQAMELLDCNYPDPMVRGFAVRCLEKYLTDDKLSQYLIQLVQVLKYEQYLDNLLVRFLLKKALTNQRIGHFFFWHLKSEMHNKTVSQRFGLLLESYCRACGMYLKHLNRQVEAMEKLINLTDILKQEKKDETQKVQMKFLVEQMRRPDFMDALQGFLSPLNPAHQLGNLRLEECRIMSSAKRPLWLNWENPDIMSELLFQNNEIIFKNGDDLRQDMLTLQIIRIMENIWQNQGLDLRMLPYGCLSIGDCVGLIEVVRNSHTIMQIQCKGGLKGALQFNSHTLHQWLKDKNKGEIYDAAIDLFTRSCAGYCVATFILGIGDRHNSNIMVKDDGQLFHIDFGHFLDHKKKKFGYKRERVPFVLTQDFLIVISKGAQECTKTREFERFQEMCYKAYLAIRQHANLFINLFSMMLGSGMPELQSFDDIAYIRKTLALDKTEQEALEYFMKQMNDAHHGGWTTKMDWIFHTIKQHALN
PI3K p110α/p85α, sequence (P27986 whole entry partner): as the sequence (P27986 whole entry partner) above
PI3K p110δ/p85α, sequence (O00329 whole entry): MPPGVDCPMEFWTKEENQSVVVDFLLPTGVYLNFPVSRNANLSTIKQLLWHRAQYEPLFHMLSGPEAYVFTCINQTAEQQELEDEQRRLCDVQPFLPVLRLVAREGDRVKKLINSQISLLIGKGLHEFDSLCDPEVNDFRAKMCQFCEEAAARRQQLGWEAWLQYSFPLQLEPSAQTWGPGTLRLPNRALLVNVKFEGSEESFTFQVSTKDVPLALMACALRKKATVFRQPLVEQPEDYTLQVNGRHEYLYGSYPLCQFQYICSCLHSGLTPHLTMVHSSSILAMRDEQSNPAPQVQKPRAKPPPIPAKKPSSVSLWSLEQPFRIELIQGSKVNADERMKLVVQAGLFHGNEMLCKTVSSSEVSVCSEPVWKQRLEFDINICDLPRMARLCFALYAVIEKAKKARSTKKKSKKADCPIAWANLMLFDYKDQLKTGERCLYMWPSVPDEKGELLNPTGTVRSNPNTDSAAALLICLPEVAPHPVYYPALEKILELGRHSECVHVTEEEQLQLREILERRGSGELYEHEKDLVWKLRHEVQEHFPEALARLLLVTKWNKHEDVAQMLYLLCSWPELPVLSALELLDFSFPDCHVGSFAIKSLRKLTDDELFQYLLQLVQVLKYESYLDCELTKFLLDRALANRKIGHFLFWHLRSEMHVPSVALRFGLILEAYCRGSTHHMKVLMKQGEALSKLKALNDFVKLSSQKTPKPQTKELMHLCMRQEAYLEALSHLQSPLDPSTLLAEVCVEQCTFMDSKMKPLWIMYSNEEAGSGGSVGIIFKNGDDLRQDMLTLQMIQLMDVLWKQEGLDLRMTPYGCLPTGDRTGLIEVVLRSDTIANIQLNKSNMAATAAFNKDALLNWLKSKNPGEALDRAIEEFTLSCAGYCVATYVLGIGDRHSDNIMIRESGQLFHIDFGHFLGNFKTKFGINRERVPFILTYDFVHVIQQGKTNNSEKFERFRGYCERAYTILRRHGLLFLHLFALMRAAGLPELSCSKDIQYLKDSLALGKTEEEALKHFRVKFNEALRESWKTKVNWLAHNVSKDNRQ
PI3K p110δ/p85α, sequence (P27986 whole entry partner): as the sequence (P27986 whole entry partner) above

CC(=O)c1c(C)c2cnc(Nc3ccc(N4CCNCC4)cn3)nc2n(C2CCCC2)c1=O [Palbociclib, 6-acetyl-8-cyclopentyl-5-methyl-2-((5-(piperazin-1-yl)pyridin-2-yl)amino)pyrido [2,3-d]pyrimidin-7(8H)-one]
psoriasis-like symptoms (enlarged skin photos by handheld digital microscope, FIG. 3B) (IMQ-treated mice; Palbociclib 25 mg/kg topical on back skin and IMQ, once per day, after the treatment in 5th day, control shows symptoms from 3rd day): not observed | psoriasis-like symptoms (skin photos, FIG. 3A) (IMQ-treated mice; Palbociclib 25 mg/kg topical on back skin then IMQ, once per day for 5 days, compared with control (solvent and IMQ), 5th day): significantly improved | release of elastase [1]: significantly restrict | PI3K p110β/p85α activity (PI3K p110β/p85α): significantly inhibit | PI3K p110δ/p85α activity (PI3K p110δ/p85α): significantly inhibit | generation of superoxide anion [2]: significantly restrict | PI3K p110α/p85α activity (PI3K p110α/p85α): significantly inhibit
